Measurements published in ChEMBL document CHEMBL4813981, “Synthesis and in vitro antibacterial activity of new aminothiazole-oximepiperidone cephalosporins” (2021).
Converted amounts (≈) assume the structure as drawn.

How the values were obtained:
Pseudomonas aeruginosa [1] = test: Antibacterial activity against Carbapenem- resistant Pseudomonas aeruginosa 17-1 assessed as reduction in bacterial growth
Acinetobacter baumannii [2] = test: Bactericidal activity against Carbapenem- resistant Acinetobacter baumannii 17-11 assessed as reduction in bacterial growth; type: functional
Enterobacter cloacae [3] = test: Bactericidal activity against Enterobacter cloacae 17-9 assessed as reduction in bacterial growth; type: functional
Escherichia coli [4] = test: Ratio of MBC to MIC for ESBLs negative carbapenem-negative Escherichia coli 17-7 assessed as reduction in bacterial growth in the presence of Avibactam; type: functional
Escherichia coli [5] = test: Antibacterial activity against ESBLs positive Carbapenem-sensitive Escherichia coli 17-2 assessed as reduction in bacterial growth in the presence of Avibactam; type: functional
Pseudomonas aeruginosa [6] = test: Ratio of MBC to MIC for carbapenem-sensitive Pseudomonas aeruginosa 17-9 assessed as reduction in bacterial growth in the presence of Avibactam; type: functional
Klebsiella aerogenes [7] = test: Ratio of MBC to MIC for Enterobacter aerogenes 15-3 assessed as reduction in bacterial growth in the presence of Avibactam; type: functional
Escherichia coli [8] = test: Ratio of MBC to MIC for ESBLs positive carbapenem-negative Escherichia coli 17-3 assessed as reduction in bacterial growth in the presence of Avibactam; type: functional
Pseudomonas aeruginosa [9] = test: Ratio of MBC to MIC for carbapenem-sensitive Pseudomonas aeruginosa 17-7 assessed as reduction in bacterial growth in the presence of Avibactam; type: functional
Escherichia coli [10] = test: Antibacterial activity against ESBLs negative Carbapenem-sensitive Escherichia coli 17-20 assessed as reduction in bacterial growth in the presence of Avibactam; type: functional
Escherichia coli [11] = test: Antibacterial activity against ESBLs positive Carbapenem-sensitive Escherichia coli 17-21 assessed as reduction in bacterial growth in the presence of Avibactam; type: functional
Klebsiella pneumoniae [12] = test: Antibacterial activity against ESBLs negative Carbapenem-sensitive Klebsiella pneumoniae 17-19 assessed as reduction in bacterial growth in the presence of Avibactam; type: functional
Klebsiella pneumoniae [13] = test: Ratio of MBC to MIC for ESBLs positive Carbapenem-sensitive Klebsiella pneumoniae 17-12 assessed as reduction in bacterial growth; type: functional
Enterobacter cloacae [14] = test: Antibacterial activity against Enterobacter cloacae 17-8 assessed as reduction in bacterial growth
Escherichia coli [15] = test: Ratio of MBC to MIC for Escherichia coli NCTC 13353 assessed as reduction in bacterial growth in the presence of Avibactam; type: functional
Enterobacter cloacae [16] = test: Antibacterial activity against Enterobacter cloacae 17-9 assessed as reduction in bacterial growth
Klebsiella pneumoniae [17] = test: Ratio of MBC to MIC for ESBLs positive Carbapenem-sensitive Klebsiella pneumoniae 17-2 assessed as reduction in bacterial growth in the presence of Avibactam; type: functional
Klebsiella pneumoniae [18] = test: Ratio of MBC to MIC for Klebsiella pneumoniae ATCC BAA-1705 assessed as reduction in bacterial growth in the presence of Avibactam; type: functional
Enterobacter cloacae [19] = test: Ratio of MBC to MIC for Enterobacter cloacae 17-8 assessed as reduction in bacterial growth in the presence of Avibactam; type: functional
Acinetobacter baumannii [20] = test: Antibacterial activity against Carbapenem- resistant Acinetobacter baumannii 17-11 assessed as reduction in bacterial growth
Klebsiella aerogenes [21] = test: Antibacterial activity against Enterobacter aerogenes 15-4 assessed as reduction in bacterial growth in the presence of Avibactam; type: functional
Escherichia coli [22] = test: Antibacterial activity against Escherichia coli 15-3 overexpressing extended spectrum beta-lactamases assessed as reduction in bacterial growth in the presence of Avibactam; type: functional
Klebsiella pneumoniae [23] = test: Ratio of MBC to MIC for Klebsiella pneumoniae ATCC BAA-1705 assessed as reduction in bacterial growth; type: functional
Enterobacter cloacae [24] = test: Ratio of MBC to MIC for Enterobacter cloacae 17-9 assessed as reduction in bacterial growth in the presence of Avibactam; type: functional
Pseudomonas aeruginosa [25] = test: Ratio of MBC to MIC for carbapenem-sensitive Pseudomonas aeruginosa 17-10 assessed as reduction in bacterial growth in the presence of Avibactam; type: functional
Escherichia coli [26] = test: Antibacterial activity against ESBLs negative Carbapenem-sensitive Escherichia coli 17-16 assessed as reduction in bacterial growth in the presence of Avibactam; type: functional
Pseudomonas aeruginosa [27] = test: Ratio of MBC to MIC for Pseudomonas aeruginosa ATCC 27853 assessed as reduction in bacterial growth; type: functional
Klebsiella pneumoniae [28] = test: Antibacterial activity against ESBLs positive Carbapenem-sensitive Klebsiella pneumoniae 17-13 assessed as reduction in bacterial growth in the presence of Avibactam; type: functional
Klebsiella pneumoniae [29] = test: Ratio of MBC to MIC for Carbapenem- resistant Klebsiella pneumoniae KR 15-6 assessed as reduction in bacterial growth; type: functional
Klebsiella aerogenes [30] = test: Ratio of MBC to MIC for Enterobacter aerogenes 17-3 assessed as reduction in bacterial growth; type: functional
Enterobacter cloacae [31] = test: Antibacterial activity against Enterobacter cloacae 17-9 assessed as reduction in bacterial growth in the presence of Avibactam; type: functional
Enterobacter cloacae [32] = test: Ratio of MBC to MIC for Enterobacter cloacae 17-9 assessed as reduction in bacterial growth; type: functional
Pseudomonas aeruginosa [33] = test: Ratio of MBC to MIC for Pseudomonas aeruginosa ATCC 27853 assessed as reduction in bacterial growth in the presence of Avibactam; type: functional
Klebsiella pneumoniae [34] = test: Antibacterial activity against ESBLs positive Carbapenem-sensitive Klebsiella pneumoniae 17-11 assessed as reduction in bacterial growth in the presence of Avibactam; type: functional
Enterobacter cloacae [35] = test: Antibacterial activity against Enterobacter cloacae 17-6 assessed as reduction in bacterial growth in the presence of Avibactam; type: functional
Escherichia coli [36] = test: Antibacterial activity against ESBLs positive Carbapenem-sensitive Escherichia coli 17-3 assessed as reduction in bacterial growth in the presence of Avibactam; type: functional
Enterobacter cloacae [37] = test: Antibacterial activity against Enterobacter cloacae 17-4 assessed as reduction in bacterial growth in the presence of Avibactam; type: functional
Escherichia coli [38] = test: Ratio of MBC to MIC for ESBLs positive Carbapenem-sensitive Escherichia coli 17-10 assessed as reduction in bacterial growth; type: functional
Enterobacter cloacae [39] = test: Ratio of MBC to MIC for Enterobacter cloacae 17-10 assessed as reduction in bacterial growth in the presence of Avibactam; type: functional
Klebsiella aerogenes [40] = test: Ratio of MBC to MIC for Enterobacter aerogenes 15-4 assessed as reduction in bacterial growth; type: functional
Escherichia coli [41] = test: Ratio of MBC to MIC for ESBLs negative Carbapenem-sensitive Escherichia coli 17-9 assessed as reduction in bacterial growth; type: functional
Escherichia coli [42] = test: Antibacterial activity against ESBLs positive Carbapenem-sensitive Escherichia coli 17-14 assessed as reduction in bacterial growth in the presence of Avibactam; type: functional
Klebsiella pneumoniae [43] = test: Antibacterial activity against ESBLs positive Carbapenem-sensitive Klebsiella pneumoniae 17-2 assessed as reduction in bacterial growth in the presence of Avibactam; type: functional
Escherichia coli [44] = test: Antibacterial activity against ESBLs negative Carbapenem-sensitive Escherichia coli 17-19 assessed as reduction in bacterial growth in the presence of Avibactam; type: functional
Escherichia coli [45] = test: Ratio of MBC to MIC for ESBLs negative Carbapenem-sensitive Escherichia coli 17-7 assessed as reduction in bacterial growth; type: functional

For CC(C)(O/N=C(\C(=O)N[C@@H]1C(=O)N2C(C(=O)[O-])=C(C[n+]3ccccc3)CS[C@H]12)c1csc(N)n1)C(=O)O [CEFTAZIDIME], the MIC (Pseudomonas aeruginosa [1]) was 32 mg/L (≈ 58.5 µM), the MBC (Acinetobacter baumannii [2]) was over 64 mg/L and the MBC (Enterobacter cloacae [3]) was over 4 mg/L.
Compound Nc1nc(/C(=N/OCc2cc(=O)c(O)cn2O)C(=O)N[C@@H]2C(=O)N3C(C(=O)O)=CCS[C@H]23)cs1 has a Ratio (Escherichia coli [4]) of 2, an MIC (Escherichia coli [5]) of 0.25 mg/L and a Ratio (Pseudomonas aeruginosa [6]) of 2. It also gave a Ratio (Klebsiella aerogenes [7]) of 1, a Ratio (Escherichia coli [8]) of 2 and a Ratio (Pseudomonas aeruginosa [9]) of 1. It also gave an MIC (Escherichia coli [10]) of 0.06 mg/L, an MIC (Escherichia coli [11]) of 0.5 mg/L and an MIC (Klebsiella pneumoniae [12]) of at most 0.03 mg/L. The Ratio (Klebsiella pneumoniae [13]) was 2, the MIC (Enterobacter cloacae [14]) was 16 mg/L (≈ 31.5 µM) and the Ratio (Escherichia coli [15]) was 1. For the same compound, the MIC (Enterobacter cloacae [16]) was 8 mg/L (≈ 15.7 µM), the Ratio (Klebsiella pneumoniae [17]) was 1 and the Ratio (Klebsiella pneumoniae [18]) was 1. The Ratio (Enterobacter cloacae [19]) was 1, the MIC (Acinetobacter baumannii [20]) was over 64 mg/L and the MIC (Klebsiella aerogenes [21]) was 0.5 mg/L. The MIC (Escherichia coli [22]) was 1 mg/L, the Ratio (Klebsiella pneumoniae [23]) was over 1 and the Ratio (Enterobacter cloacae [24]) was 1. It also gave a Ratio (Pseudomonas aeruginosa [25]) of 2, an MIC (Escherichia coli [26]) of 0.5 mg/L and a Ratio (Pseudomonas aeruginosa [27]) of 16. For the same compound, the MIC (Klebsiella pneumoniae [28]) was at most 0.03 mg/L, the Ratio (Klebsiella pneumoniae [29]) was 4 and the Ratio (Klebsiella aerogenes [30]) was 1. The MIC (Enterobacter cloacae [31]) was 2 mg/L, the Ratio (Enterobacter cloacae [32]) was 1 and the Ratio (Pseudomonas aeruginosa [33]) was 4. For the same compound, the MIC (Klebsiella pneumoniae [34]) was 4 mg/L, the MIC (Enterobacter cloacae [35]) was 1 mg/L and the MIC (Escherichia coli [36]) was 0.125 mg/L. It also gave an MIC (Enterobacter cloacae [37]) of 0.5 mg/L, a Ratio (Escherichia coli [38]) of 1 and a Ratio (Enterobacter cloacae [39]) of 2. The Ratio (Klebsiella aerogenes [40]) was 1, the Ratio (Escherichia coli [41]) was 4 and the MIC (Escherichia coli [42]) was 0.25 mg/L. For the same compound, the MIC (Klebsiella pneumoniae [43]) was 0.125 mg/L, the MIC (Escherichia coli [44]) was 0.5 mg/L and the Ratio (Escherichia coli [45]) was 2.
